Tests used:
MIN6 cell [1] = assay: Insulin secretion promoting activity for cultured β-cells, in the presence of 14.5 mmol/L glucose; assay type: cell-based; conditions: none: 148.4
Experimental: (§1) Further, the insulin secretion of the MIN6 cell is prompted in response to sulfonylurea-agents such as glibenclamide, which are used as a medicament for treatment of diabetes (Cellular Signalling, vol. 5, p. 777-786, 1993).
Culture of the MIN6 cells above and insulin secretion test utilizing the MIN6 cells were performed according to the methods described in Diabetologia, vol. 36, p. 1139-1145, 1993. The effect of a compound on the insulin secretion in the presence of 14.5 mmol/L glucose was determined by measuring insulin amounts in cell culture supernatants collected as follows. MIN6 cells cultured on a 24-well plate were washed twice by using 1 mL of Buffer A (119 mmol/L sodium chloride, 4.74 mmol/L potassium chloride, 2.54 mmol/L calcium chloride, 1.19 mmol/L magnesium sulfate, 1.19 mmol/L potassium dihydrogenphosphate, 10 mmol/L 2-[4-(2-hydroxyethyl)-1-piperazinyl]ethanesulfonic acid, and 0.1% bovine serum albumin, pH 7.3) containing 2 mmol/L glucose, and then were incubated in 1 mL of Buffer A containing 2 mmol/L glucose at 37° C. for 45 minutes. After the incubation, the culture supernatant was changed to Buffer A (0.9 mL) containing a test compound at various concentrations and 2 mmol/L glucose, and the cells were further incubated at 37° C. for 15 minutes. […]

MIN6 cell [2] = assay: Insulin secretion promoting activity for cultured β-cells, in the presence of 5 mmol/L glucose; assay type: cell-based; conditions: for Insulin secretion amount (ng/mL) Avg: 5 mmol/L glucose, None: 51.2; for secretion promoting action at low glucose concentration (in words): glucose at a low concentration (5 mmol/L)
Experimental: as §1
Separately, the effect of a compound on the insulin secretion in the presence of 5 mmol/L glucose was determined by measuring insulin amounts in cell culture supernatants collected as follows. MIN6 cells cultured on a 24-well plate were washed twice by using 1 mL of Buffer A containing 5 mmol/L glucose, and then the culture supernatant was changed to Buffer A (0.9 mL) containing a test compound at various concentrations and 5 mmol/L glucose. Then, the cells were incubated at 37° C. for 45 minutes (final glucose concentration: 5 mmol/L), and the culture supernatant was collected.
After the culture supernatant was diluted with a phosphate buffer containing 1% bovine serum albumin, 0.1% Tween 20, 0.12% disodium ethylenediaminetetraacetate (EDTA), and 0.1% sodium azide, antibody-reactive insulin secreted in the culture supernatant was qualified by enzyme immunoassay or radio immunoassay. The insulin level was indicated as the amount of human insulin (ng/mL). The results are indicated as average (avg) of 3 to 4 samples with standard error values (se).

COc1ccc(Cl)cc1C(=O)NCCc1ccc(S(=O)(=O)NC(=O)NC2CCCCC2)cc1 [Glibenclamide]
Insulin secretion amount (ng/mL) avg (MIN6 cell [1]; drug concentration 0.1 μmol/L): 177.8 ng/mL | Insulin secretion amount (ng/mL) Avg (MIN6 cell [2]; drug concentration 0.1 μmol/L): 156.8 ng/mL | secretion promoting action at low glucose concentration (in words) (MIN6 cell [2]): showed marked secretion promoting action

CC(C)[C@H]1CC[C@H](C(=O)N[C@H](Cc2ccccc2)C(=O)O)CC1 [AY4166]
Insulin secretion amount (ng/mL) avg (MIN6 cell [1]; drug concentration 10 μmol/L): 195.1 ng/mL | Insulin secretion amount (ng/mL) Avg (MIN6 cell [2]; drug concentration 10 μmol/L): 170.8 ng/mL | secretion promoting action at low glucose concentration (in words) (MIN6 cell [2]): showed marked secretion promoting action

Reference: patent US20060046992A1, “HETEROBICYCLIC COMPOUNDS” (priority 2002, published 2006)
